This is an account of results in US12303500B2, “Method for improving stability of low-concentration atropine ophthalmic preparation” (SHENYANG XINGQI PHARMACEUTICAL CO., LTD., priority 2018, dated 2025).

Counter-ions that a name gives are not always drawn. Like-named read-outs stand apart in the source and are kept apart here.

The conditions of the data set: 40°C±2°C, RH 75%±5%.

Description: In the chromatogram of the sample solution, the chromatographic peaks with peak area smaller than 0.5 times of the main peak area of the control solution should be ignored.

Turning to `CN1[C@@H]2CC[C@H]1C[C@@H](OC(=O)C(CO)c1ccccc1)C2` (stereo partly drawn) [Example 160903-P01, atropine sulfate], the Content reads like this: (0th month) 100.3%; (1st month) 100.3%; (2nd month) 100.2%; (3rd month) 100.4%; (6th month) 100.3%. Moreover, the Hyoscyamine result reads like this: (0th month) “+0.002°”; (1st month) “+0.002°”; (2nd month) “+0.001°”; (3rd month) 0.000°; (6th month) 0.000°. The Moisture came out at 3.15% (0th month); 3.24% (1st month); 2.97% (2nd month); 3.49% (3rd month); 3.69% (6th month).
